The values that follow come from ChEMBL document CHEMBL1146703, “Mannopeptimycin esters and carbonates, potent antibiotic agents against drug-resistant bacteria” (2004).

One assay relates to Mus musculus. Put plainly: Antibacterial activity against Staphylococcus aureus infection in mouse after i.v. administration (Vancomycin, ED50= 1.0 mg/kg ). The note with it: route intravenous. The class given is functional.
The test system of assay [1] is Staphylococcus aureus. The assay can be described thus: Antibacterial activity against Staphylococcus aureus; Range is 1-2. It is filed as functional.
The next assay has as its system Escherichia coli. The assay can be described thus: Antibacterial activity against Escherichia coli at </=64 ug/mL; No activity. It is filed as functional, organism-based.
In assay [2] the test system is Enterococcus faecalis. The assay can be described thus: Antibacterial activity against Enterococcus faecalis. It is filed as functional.
Assay [3] relates to Staphylococcus aureus. The assay can be described thus: Antibacterial activity against Staphylococcus aureus. The class given is functional.
Assay [4] concerns Enterococcus faecalis. Put plainly: Antibacterial activity against Enterococcus faecalis; Range is 16-32. It is filed as functional.
Assay [5] relates to Staphylococcus aureus. Put plainly: Antibacterial activity against Staphylococcus aureus; Range is 4-8. The class given is functional.

Values after ≈ are worked out from the molar mass of the structure shown.

For the compound `CCCC(CCC)C(=O)OC[C@H]1O[C@H](O[C@H]2[C@H](O)[C@H](O)[C@@H](Oc3ccc(C[C@H]4NC(=O)[C@H]([C@@H](C)c5ccccc5)NC(=O)CNC(=O)[C@H](CO)NC(=O)[C@@H]([C@@H](O)[C@@H]5CNC(N)N5[C@H]5O[C@H](CO)[C@@H](O)[C@H](O)[C@@H]5O)NC(=O)[C@H]([C@@H](O)[C@@H]5CNC(N)N5)NC4=O)cc3)O[C@@H]2CO)[C@@H](O)[C@@H](O)[C@@H]1O` (stereo not given in full), the ED50 – broadly, the midpoint of the dose-response relation – in the assay on Mus musculus came to 0.52 mg/kg. The figures for the MIC against Staphylococcus aureus [1], in the assay on Escherichia coli and against Enterococcus faecalis [2] were 2 µg/mL (≈ 1.4 µM), “No activity” and 4 µg/mL (≈ 2.81 µM), respectively.

For `C[C@@H](c1ccccc1)[C@@H]1NC(=O)CNC(=O)[C@H](CO)NC(=O)[C@@H]([C@@H](O)[C@@H]2CNC(N)N2[C@H]2O[C@H](CO)[C@@H](O)[C@H](O)[C@@H]2O)NC(=O)[C@H]([C@@H](O)[C@@H]2CNC(N)N2)NC(=O)[C@@H](Cc2ccc(O[C@H]3O[C@H](COC(=O)CCC4CCCC4)[C@@H](O[C@H]4O[C@H](CO)[C@@H](O)[C@H](O)[C@@H]4O)[C@H](O)[C@@H]3O)cc2)NC1=O` (stereo not given in full), the MIC (usually the smallest concentration in the dilution series that meets the test's criterion for growth inhibition) in the assay with Staphylococcus aureus [3] is 2 µg/mL (≈ 1.4 µM); with Escherichia coli it was “No activity”; against Enterococcus faecalis [2], 8 µg/mL (≈ 5.62 µM).

`CCCCCC(=O)OC[C@H]1O[C@H](N2C(N)NC[C@H]2[C@H](O)[C@H]2NC(=O)[C@H]([C@@H](O)[C@@H]3CNC(N)N3)NC(=O)[C@@H](Cc3ccc(O[C@H]4O[C@H](CO)[C@@H](O[C@H]5O[C@H](CO)[C@@H](O)[C@H](O)[C@@H]5O)[C@H](O)[C@@H]4O)cc3)NC(=O)[C@H]([C@@H](C)c3ccccc3)NC(=O)CNC(=O)[C@H](CO)NC2=O)[C@@H](O)[C@@H](O)[C@@H]1O` (stereo not given in full): the figures for the MIC in the assay with Staphylococcus aureus [3], in the assay with Escherichia coli and against Enterococcus faecalis [2] were above 64 µg/mL, “No activity” and above 64 µg/mL, respectively.

With `C[C@@H](c1ccccc1)[C@@H]1NC(=O)CNC(=O)[C@H](CO)NC(=O)[C@@H]([C@@H](O)[C@@H]2CNC(N)N2[C@H]2O[C@H](COC(=O)C(c3ccccc3)c3ccccc3)[C@@H](O)[C@H](O)[C@@H]2O)NC(=O)[C@H]([C@@H](O)[C@@H]2CNC(N)N2)NC(=O)[C@@H](Cc2ccc(O[C@H]3O[C@H](CO)[C@@H](O[C@H]4O[C@H](CO)[C@@H](O)[C@H](O)[C@@H]4O)[C@H](O)[C@@H]3O)cc2)NC1=O` (stereo not given in full), the MIC is above 64 µg/mL with Staphylococcus aureus [3], “No activity” in the assay with Escherichia coli and above 64 µg/mL in the assay on Enterococcus faecalis [2].

On to `C[C@@H](c1ccccc1)[C@@H]1NC(=O)CNC(=O)[C@H](CO)NC(=O)[C@@H]([C@@H](O)[C@@H]2CNC(N)N2[C@H]2O[C@H](COC(=O)CCC3CCCC3)[C@@H](O)[C@H](O)[C@@H]2O)NC(=O)[C@H]([C@@H](O)[C@@H]2CNC(N)N2)NC(=O)[C@@H](Cc2ccc(O[C@H]3O[C@H](CO)[C@@H](O[C@H]4O[C@H](CO)[C@@H](O)[C@H](O)[C@@H]4O)[C@H](O)[C@@H]3O)cc2)NC1=O` (stereo not given in full), for which the MIC against Staphylococcus aureus [3] was above 64 µg/mL; in the assay on Escherichia coli, “No activity”; in the assay on Enterococcus faecalis [2], above 64 µg/mL.

For the compound `C[C@@H](c1ccccc1)[C@@H]1NC(=O)CNC(=O)[C@H](COC(=O)Cc2ccccc2)NC(=O)[C@@H]([C@@H](O)[C@@H]2CNC(N)N2[C@H]2O[C@H](CO)[C@@H](O)[C@H](O)[C@@H]2O)NC(=O)[C@H]([C@@H](O)[C@@H]2CNC(N)N2)NC(=O)[C@@H](Cc2ccc(O[C@H]3O[C@H](CO)[C@@H](O[C@H]4O[C@H](CO)[C@@H](O)[C@H](O)[C@@H]4O)[C@H](O)[C@@H]3O)cc2)NC1=O` (stereo not given in full), the MIC result in the assay on Escherichia coli is “No activity”.

For `CCCC(CCC)C(=O)OC[C@@H]1NC(=O)[C@@H]([C@@H](O)[C@@H]2CNC(N)N2[C@H]2O[C@H](CO)[C@@H](O)[C@H](O)[C@@H]2O)NC(=O)[C@H]([C@@H](O)[C@@H]2CNC(N)N2)NC(=O)[C@@H](Cc2ccc(O[C@H]3O[C@H](CO)[C@@H](O[C@H]4O[C@H](CO)[C@@H](O)[C@H](O)[C@@H]4O)[C@H](O)[C@@H]3O)cc2)NC(=O)[C@H]([C@@H](C)c2ccccc2)NC(=O)CNC1=O` (stereo not given in full), in the assay on Escherichia coli, the MIC result was “No activity”.

For the compound `CCCCCCC(=O)OC[C@H]1O[C@H](N2C(N)NC[C@H]2[C@H](O)[C@H]2NC(=O)[C@H]([C@@H](O)[C@@H]3CNC(N)N3)NC(=O)[C@@H](Cc3ccc(O[C@H]4O[C@H](CO)[C@@H](O[C@H]5O[C@H](CO)[C@@H](O)[C@H](O)[C@@H]5O)[C@H](O)[C@@H]4O)cc3)NC(=O)[C@H]([C@@H](C)c3ccccc3)NC(=O)CNC(=O)[C@H](CO)NC2=O)[C@@H](O)[C@@H](O)[C@@H]1O` (stereo not given in full), the MIC against Staphylococcus aureus [3] was above 64 µg/mL; in the assay on Escherichia coli, “No activity”; in the assay on Enterococcus faecalis [2], above 64 µg/mL.

On to `C[C@@H](c1ccccc1)[C@@H]1NC(=O)CNC(=O)[C@H](CO)NC(=O)[C@@H]([C@@H](O)[C@@H]2CNC(N)N2[C@H]2O[C@H](CO)[C@@H](O)[C@H](O)[C@@H]2O)NC(=O)[C@H]([C@@H](O)[C@@H]2CNC(N)N2)NC(=O)[C@@H](Cc2ccc(O[C@H]3O[C@H](CO)[C@@H](O[C@H]4O[C@H](COC(=O)CCC5CCCC5)[C@@H](O)[C@H](O)[C@@H]4O)[C@H](O)[C@@H]3O)cc2)NC1=O` (stereo not given in full), for which the MIC is 1 µg/mL (≈ 0.702 µM) in the assay on Staphylococcus aureus [3], “No activity” in the assay with Escherichia coli and 4 µg/mL (≈ 2.81 µM) against Enterococcus faecalis [2].

Regarding `C[C@@H](c1ccccc1)[C@@H]1NC(=O)CNC(=O)[C@H](COC(=O)C(c2ccccc2)c2ccccc2)NC(=O)[C@@H]([C@@H](O)[C@@H]2CNC(N)N2[C@H]2O[C@H](CO)[C@@H](O)[C@H](O)[C@@H]2O)NC(=O)[C@H]([C@@H](O)[C@@H]2CNC(N)N2)NC(=O)[C@@H](Cc2ccc(O[C@H]3O[C@H](CO)[C@@H](O[C@H]4O[C@H](CO)[C@@H](O)[C@H](O)[C@@H]4O)[C@H](O)[C@@H]3O)cc2)NC1=O` (stereo not given in full), the values for the MIC against Staphylococcus aureus [3], with Escherichia coli and against Enterococcus faecalis [2] were above 64 µg/mL, “No activity” and above 64 µg/mL, respectively.

Turning to `C[C@@H](c1ccccc1)[C@@H]1NC(=O)CNC(=O)[C@H](CO)NC(=O)[C@@H]([C@@H](O)[C@@H]2CNC(N)N2[C@H]2O[C@H](COC(=O)Cc3ccccc3)[C@@H](O)[C@H](O)[C@@H]2O)NC(=O)[C@H]([C@@H](O)[C@@H]2CNC(N)N2)NC(=O)[C@@H](Cc2ccc(O[C@H]3O[C@H](CO)[C@@H](O[C@H]4O[C@H](CO)[C@@H](O)[C@H](O)[C@@H]4O)[C@H](O)[C@@H]3O)cc2)NC1=O` (stereo not given in full), the MIC result in the assay with Escherichia coli is “No activity”.

Compound `CC(C)CC(=O)O[C@H]1[C@H](O)[C@H](O)[C@@H](O[C@H]2[C@H](O)[C@H](O)[C@@H](Oc3ccc(C[C@H]4NC(=O)[C@H]([C@@H](C)c5ccccc5)NC(=O)CNC(=O)[C@H](CO)NC(=O)[C@@H]([C@@H](O)[C@@H]5CNC(N)N5[C@H]5O[C@H](CO)[C@@H](O)[C@H](O)[C@@H]5O)NC(=O)[C@H]([C@@H](O)[C@@H]5CNC(N)N5)NC4=O)cc3)O[C@@H]2CO)O[C@@H]1CO` (stereo not given in full) registered an ED50 with Mus musculus of 0.6 mg/kg. Besides, the results for the MIC against Staphylococcus aureus [3], against Enterococcus faecalis [4] and with Escherichia coli were 4 µg/mL (≈ 2.89 µM), 32 µg/mL (≈ 23.1 µM) and “No activity”, respectively.

`C[C@@H](c1ccccc1)[C@@H]1NC(=O)CNC(=O)[C@H](CO)NC(=O)[C@@H]([C@@H](O)[C@@H]2CNC(N)N2[C@H]2O[C@H](CO)[C@@H](O)[C@H](O)[C@@H]2O)NC(=O)[C@H]([C@@H](O)[C@@H]2CNC(N)N2)NC(=O)[C@@H](Cc2ccc(O[C@H]3O[C@H](CO)[C@@H](O[C@H]4O[C@H](CO)[C@@H](O)[C@H](O)[C@@H]4O)[C@H](O)[C@@H]3O)cc2)NC1=O` (stereo not given in full): the figures for the MIC against Staphylococcus aureus [3], in the assay with Escherichia coli and in the assay with Enterococcus faecalis [2] were above 64 µg/mL, “No activity” and above 64 µg/mL, respectively.

As for `CCCC(CCC)C(=O)OC[C@H]1O[C@H](N2C(N)NC[C@H]2[C@H](O)[C@H]2NC(=O)[C@H]([C@@H](O)[C@@H]3CNC(N)N3)NC(=O)[C@@H](Cc3ccc(O[C@H]4O[C@H](CO)[C@@H](O[C@H]5O[C@H](CO)[C@@H](O)[C@H](O)[C@@H]5O)[C@H](O)[C@@H]4O)cc3)NC(=O)[C@H]([C@@H](C)c3ccccc3)NC(=O)CNC(=O)[C@H](CO)NC2=O)[C@@H](O)[C@@H](O)[C@@H]1O` (stereo not given in full), in the assay with Escherichia coli, the MIC entry was “No activity”.

As to `CCCCCCC(=O)OC[C@@H]1NC(=O)[C@@H]([C@@H](O)[C@@H]2CNC(N)N2[C@H]2O[C@H](CO)[C@@H](O)[C@H](O)[C@@H]2O)NC(=O)[C@H]([C@@H](O)[C@@H]2CNC(N)N2)NC(=O)[C@@H](Cc2ccc(O[C@H]3O[C@H](CO)[C@@H](O[C@H]4O[C@H](CO)[C@@H](O)[C@H](O)[C@@H]4O)[C@H](O)[C@@H]3O)cc2)NC(=O)[C@H]([C@@H](C)c2ccccc2)NC(=O)CNC1=O` (stereo not given in full), in the assay on Escherichia coli, the MIC result was “No activity”.

On to `C[C@@H](c1ccccc1)[C@@H]1NC(=O)CNC(=O)[C@H](COC(=O)CCC2CCCC2)NC(=O)[C@@H]([C@@H](O)[C@@H]2CNC(N)N2[C@H]2O[C@H](CO)[C@@H](O)[C@H](O)[C@@H]2O)NC(=O)[C@H]([C@@H](O)[C@@H]2CNC(N)N2)NC(=O)[C@@H](Cc2ccc(O[C@H]3O[C@H](CO)[C@@H](O[C@H]4O[C@H](CO)[C@@H](O)[C@H](O)[C@@H]4O)[C@H](O)[C@@H]3O)cc2)NC1=O` (stereo not given in full), for which the MIC in the assay on Staphylococcus aureus [3] is above 64 µg/mL; in the assay with Escherichia coli, “No activity”; in the assay with Enterococcus faecalis [2] it was above 64 µg/mL.

`CCCCCC(=O)OC[C@@H]1NC(=O)[C@@H]([C@@H](O)[C@@H]2CNC(N)N2[C@H]2O[C@H](CO)[C@@H](O)[C@H](O)[C@@H]2O)NC(=O)[C@H]([C@@H](O)[C@@H]2CNC(N)N2)NC(=O)[C@@H](Cc2ccc(O[C@H]3O[C@H](CO)[C@@H](O[C@H]4O[C@H](CO)[C@@H](O)[C@H](O)[C@@H]4O)[C@H](O)[C@@H]3O)cc2)NC(=O)[C@H]([C@@H](C)c2ccccc2)NC(=O)CNC1=O` (stereo not given in full): the MIC result in the assay with Escherichia coli is “No activity”.

On to `CC(C)CC(=O)O[C@@H]1[C@H](O)[C@@H](O[C@H]2[C@H](O)[C@H](O)[C@@H](Oc3ccc(C[C@H]4NC(=O)[C@H]([C@@H](C)c5ccccc5)NC(=O)CNC(=O)[C@H](CO)NC(=O)[C@@H]([C@@H](O)[C@@H]5CNC(N)N5[C@H]5O[C@H](CO)[C@@H](O)[C@H](O)[C@@H]5O)NC(=O)[C@H]([C@@H](O)[C@@H]5CNC(N)N5)NC4=O)cc3)O[C@@H]2CO)O[C@H](CO)[C@H]1O` (stereo not given in full), for which the results for the MIC with Staphylococcus aureus [5], in the assay on Escherichia coli and against Enterococcus faecalis [2] were 8 µg/mL (≈ 5.78 µM), “No activity” and 64 µg/mL (≈ 46.3 µM), respectively. The same compound came in with an ED50 with Mus musculus of 2.6 mg/kg.
